Series [1] has as its system normal human keratinocyte (NHK) cells. The experiment in a line: MTS assay evaluation of cytotoxicity. Particulars: 48 hours treatment, up to 50 μM. Type of series: cell-based. As for the experimental part: MTS assay was used to evaluate the potential cytotoxicity of peptides against normal human keratinocytes. Briefly, 2 × 10^3 NHK cells were seeded in 96 well tissue culture plates and analysis was performed 48 hours after treatment with LLY12 and LLY13 by adding 20 μL per well of the tetrazolium salt MTS, 3-(4,5-dimethylthiazol-2-yl)-5-(3-carboxymethoxyphenyl)-2-(4-sulfophenyl)-2H-tetrazolium for 2 hours at 37° C. The 96 well plates were read on a VERSA max tunable microplate reader at 490 nm. Similar to the MTT assay, the reduction of MTS solutions to formazan reflects mitochondrial activity and cell viability by proxy.
(Tetrazolium dyes change colour on reduction, which living cells bring about.)

The test system of series [2] is HSC-3 cells and MOK-101 cells. The experiment in a line: Peptide induced cell uptake assay (confocal). In kind it is cell-based, human. As to conditions: HSC-3 and MOK-101 cells, up to 3 hours, cytoplasm and nucleus. The procedure:
Peptide induced cell uptake assay was used to investigate endocytic uptake of the targeting peptide by live OSC cells. Biotinylated LLY13 was pre-incubated (50 μM) with streptavidin-Alexa488 (1mg/mL) for 2 hours at room temperature and then at 4° C overnight to form the biotin-peptides/streptavidin-Alexa488 complex. Oral cancer cells of HSC-3 cells and MOK-101 were seeded in chamber slides at a concentration of 2.3 × 10^4 cells. After 60% confluency, biotin-peptides-streptavidin-Alexa488 complexes were added at different time intervals (30 min, one hour, two hours and three hours). By the end of experiments, 1:2000 dilution of DAPI was added to the specimens. Peptide induced endocytic uptake of cancer cells was observed under confocal laser scanning microscope.

The subject of series [3] is human oral cancer cells HSC-3. The experiment in a line: Flow cytometry study of binding affinity of ligands. Particulars: HSC-3 cells; for Kd: biotinylated peptide followed by streptavidin-PE. As for the experimental part: Flow cytometry was employed to compare the binging affinity of LLY12 and LLY13 [25–27]. Confluent tumor cells (80–90%) were dissociated with 0.05% trypsin-EDTA and neutralized with culture medium. After washed three times with F10 buffer, containing PBS with 10% FBS and 1 mM MnCl2 , the human oral cancer cells HSC-3 (3 × 10^5) were added with different concentration of biotinylated LLY12 and LLY13 in 50 μL F10 media for 30 minutes on ice. Then each sample was washed three times with 1 mL PBS containing 1% FBS. Samples thereafter were incubated with a 1:500 dilution of streptavidin-phycoerythrin (1 mg/mL) for 30 min on ice followed by a single wash with 1 mL of PBS containing 1% FBS. Finally, the samples in PBS were analyzed by flow cytometry and the mean fluorescence intensity (MFI) was acquired for each individual sample.
In general terms: In flow cytometry, cells or beads pass a laser one at a time.

Entries after “also recorded” stand apart in the source; their conditions may differ. Where two headings read alike, the source gives them in different places.

What is called Kd is the equilibrium constant for the complex coming apart.

For cyclic cdG (Nle) G(Hyp) Lc [LLY12], the “cytotoxicity (MTS assay)” value in series [1] was “no obvious cytotoxicity; also recorded: not cytotoxic”. In series [2], the “cellular uptake (internalization) by live OSC cells” value was “not observed”. Besides, the Kd in series [3] (read-out: Kd value) is 870 nM. In addition, the “Bmax value (maximum binding capacity)” value in series [3] (flow cytometry) amounted to 248. Further, the “Bmax (maximum binding)” value in series [3] (flow cytometry, Figure 4) is 248 AU.
On to cyclic cdGYG (Hyp) Wc [LLY13], for which the “cytotoxicity (MTS assay)” value in series [1] is “no obvious cytotoxicity; also recorded: not cytotoxic”. Besides, the Kd in series [3] (Figure 4, read-out: Kd) worked out at 1230 nM. In addition, in series [3] (read-out: Kd value), the Kd is 1270 nM. Also, in series [3] (flow cytometry), the “Bmax value (maximum binding capacity)” value is 764 and the “maximum binding capacity in comparison to LLY12” value is given as “around 3 fold”. For the same substance, in series [3] (flow cytometry, Figure 4), the “Bmax (maximum binding)” value amounted to 764 AU.

The record behind these values is publication PMC6739215, “One-bead one-compound combinatorial library derived targeting ligands for detection and treatment of oral squamous cancer” (Oncotarget, 2019).
